In patent US20090054523A1, “Use of a Fatty Acid Composition Containing DHA for the Production of a Medical Product or a Food Stuff for the Treatment of Amyloidos-Related Diseases” (priority 2005, published 2009):

Tested on: secondary amyloidosis (spleen amyloid)
Assay: Secondary amyloidosis induced by silver nitrate injections, spleen amyloid by Congo red
Type: in vivo, Female NMRI mice
Protocol: Female NMRI mice were injected once a week subcutaneously with 0.3 ml of a 1% silver nitrate solution for 25 weeks. The animals were fed high fat diet containing mainly sunflower oil with a fat content of 55% of total daily calories. Three groups each consisting of 6 animals were given different omega-3 fatty acid concentrates (intervention group) or standard olive oil containing about 78% oleic acid (oleic acid group). In the intervention groups 15% of the fat content was exchanged with either 97% docosahexaenoic acid (DHA group) or EPAX1050TG containing 10% of EPA and 50% of DHA (EPAX group).
After study completion the mice were sacrificed and spleens were collected.
The air-dried smear material and 10-μm-thick sections from the formalin fixed material were stained for amyloid with specific dye alkaline Congo red. The slides were examined in cross-polarized light for bright green birefringence, specific for amyloid. Evaluation of the material was performed on coded slides.

`CC/C=C\C/C=C\C/C=C\C/C=C\C/C=C\C/C=C\CCC(=O)O` [DHA, (all-Z omega-3)-4,7,10,13,16,19-docosahexaenoic acid] was tested, and the “amyloid appeared in the spleen” value (25 weeks of weekly s.c. silver nitrate, 15% of fat content exchanged) was “one out of six”, the “animals that developed amyloid after silver nitrate injections” value (after 25 weeks of treatment) was “one” and the animals with amyloid (spleen, 25 weeks of weekly s.c. silver nitrate, 15% of tot. fat of high fat diet exchanged) was 1/6 animals.
